Read-outs that look alike come from different tables or passages of the source. Square brackets hold non-standard residues; d marks the D form. Peptide text beside a SMILES is read from it. * marks the point of attachment. Benzoyl(4-guanidino) = N=C(N)Nc1ccc(C(=O)*)cc1; Oic = O=C(O)[C@@H]1C[C@@H]2CCCC[C@@H]2N1; Hyp = O=C(O)[C@@H]1C[C@@H](O)CN1; dTic = O=C(O)[C@H]1Cc2ccccc2CN1; 2Thi = N[C@@H](Cc1cccs1)C(=O)O; Agp = N=C(N)NC[C@H](N)C(=O)O
Columns and labels:
[1] = system: oedème de la patte de rat induite par injection de carragénine; conditions: rat, 0,1 mg/kg I.V., at time 1 hour, versus vehicle control group
Text: L'activité anti-inflammatoire des dérivés de l'invention a été mesurée en utilisant le modèle de l'oedème de la patte de rat induite par injection de carragénine (WINTER G. A. et coll. Proc. Soc. Exp. Biol. Med., 3, 544-547, 1960). Cette étude est effectuée sur rats mâles de 180-210 g par lot de 8. Les dérivés de l'invention sont administrés par voie I.V. au temps 0 précédant immédiatement l'injection de carragénine par voie sous-cutanée dans la plante de la patte arrière droite du rat (Carragénine lambda type IV, sigma, solution à 1 %, volume injecté 0,1 ml). Le volume de la patte aux différents temps de l'expérimentation est mesurée par plethysmographie. L'inhibition de l'oedème au temps 3 heures est calculée par rapport à un lot contrôle ayant reçu le véhicule et exprimée en pourcentage d'inhibition.

Récepteur B2 = assay type: cell-based, lapin
Protocol: Exemple 44 : Mesure in vitro de l'effet des dérivés de l'invention vis à vis de la réponse contractile du muscle lisse de la veine jugulaire de lapin induite par la bradykinine
Cette étude a été réalisée selon le protocole décrit par D. REGOLI et J. BARABE (Récepteur B2-Pharmacology of Bradykinin and related kinins, Pharm. Rev., 32, 1, 1-46, 1980). Des anneaux de veine jugulaire sont suspendus dans des chambres d'organes (40 ml) contenant une solution de KREBS thermostatée à 37°C, oxygénée en permanence par un bullage de 95 % 02/5 % CO2. La force isométrique développée par les anneaux est mesurée et enregistrée. La tension de base est d'environ 2 g. Les cuves reçoivent les concentrations du dérivé de l'invention à tester (10^-8M à 10^-5M), une cuve contrôle reçoit le solvant. Une courbe concentration réponse à la bradykinine est réalisée de 10^-10M à 10^-5M avec une progression par demi-log. La puissance des antagonistes à la bradykinine est mesurée à partir des courbes log dose-effet permettant la détermination des pA2 (logarithme négatif de la concentration molaire du dérivé de l'invention qui oblige à doubler la concentration de bradykinine pour obtenir le même effet). Lors de ce test, les dérivés de l'invention ont un pA2 compris entre 9 et 10. Plus particulièrement, le pA2 du composé de l'exemple 2 est égal à 9,1 ± 0,1, celui de l'exemple 3 est égal à 9,4 ± 0,1, celui de l'exemple 5 est égal à 9,3 ± 0,1.

[2] = antagonism of bradykinin concentration-response curve (10^-10M to 10^-5M), rabbit jugular vein rings, compound 10^-8M to 10^-5M, 37°C

Molecule: arg-Arg-Pro-Hyp-Gly-Thi-Ser-[3,2-c]ttp-Oic-Arg [Exemple 3]
- inhibition de l'oedème [1]: 36%
- pA2 (Récepteur B2; [2]): 9,4 ± 0,1

Molecule: N=C(N)NCCC[C@H](NC(=O)c1ccc(NC(=N)N)cc1)C(=O)N1CCC[C@H]1C(=O)N1C[C@H](O)C[C@H]1C(=O)NCC(=O)N[C@@H](Cc1cccs1)C(=O)N[C@@H](CO)C(=O)N1Cc2ccccc2C[C@@H]1C(=O)N1[C@H](C(=O)N[C@@H](CNC(=N)N)C(=O)O)C[C@@H]2CCCC[C@@H]21 [Exemple 5, Gba-Arg-Pro-Hyp-Gly-Thi-Ser-tic-Oic-Gpr-OH] ({Benzoyl(4-guanidino)}-RP[Hyp]G[2Thi]S[dTic][Oic][Agp]-OH)
- pA2 (Récepteur B2): 9,3 ± 0,1

Molecule: Gba-Arg-Pro-Hyp-Gly-Thi-Ser-[3,2-c]ttp-Oic-Arg [Exemple 2]
- inhibition de l'oedème [1]: 36%
- pA2 (Récepteur B2; [2]): 9,1 ± 0,1

Reference: patent EP0578521B1, “New peptide derivatives with bradykinin-antagonistic activity, process to prepare them and pharmaceutical compositions containing them” (ADIR ET COMPAGNIE, priority 1992, dated 1996)
